Data reported in patent US9708259B2 (Hoffmann-La Roche Inc., priority 2013, dated 2017).
Where a chain is given by its changes, count along the chain named. Read-outs that look alike come from different tables or passages of the source.

How the values were obtained:
[1] = biological target: T1, human M1 (Homo sapiens, UniProt P11229); experiment: M1 PAM assay (FLIPR intracellular calcium), human M1; format: cell-based
T1 construct: expressed in transfected cells; host or cells: CHO cells
T1 sequence (P11229 1-460): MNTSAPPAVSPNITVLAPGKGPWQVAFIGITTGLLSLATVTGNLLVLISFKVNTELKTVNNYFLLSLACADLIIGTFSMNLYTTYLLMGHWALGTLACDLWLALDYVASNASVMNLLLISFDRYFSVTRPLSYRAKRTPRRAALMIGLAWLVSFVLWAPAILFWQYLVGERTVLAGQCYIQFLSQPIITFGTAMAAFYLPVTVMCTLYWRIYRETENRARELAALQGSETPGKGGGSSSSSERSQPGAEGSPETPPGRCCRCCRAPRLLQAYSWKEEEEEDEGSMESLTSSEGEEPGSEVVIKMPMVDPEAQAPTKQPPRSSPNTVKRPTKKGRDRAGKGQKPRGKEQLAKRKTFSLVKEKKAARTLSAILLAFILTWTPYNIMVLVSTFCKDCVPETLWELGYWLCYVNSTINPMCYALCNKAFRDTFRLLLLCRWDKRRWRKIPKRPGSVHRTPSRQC
How it was run: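 CHO cells expressing M1, Fluo-4AM-loaded, in HEPES/probenecid HBSS pH 7.4, 1% DMSO final. Compounds pre-incubated 2 min for agonist activity versus 30 nM acetylcholine control. For PAM activity, acetylcholine EC20 added after the 2 min pre-incubation, then 2 min more before FLIPR intracellular Ca2+ read.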

[2] = biological target: T2, ratM1 (Rattus norvegicus, UniProt P08482); experiment: M1 PAM assay (FLIPR intracellular calcium), rat M1; format: cell-based
T2 construct: expressed in transfected cells; host or cells: CHO cells (stated generally for the assay, not specifically for rat M1)
T2 sequence (P08482 1-460): T1 sequence (P11229 1-460) with A5V, T254S, P309S, R320K, A337G, I413V

[3] = CHO human M1 cells, FLIPR Ca2+, with EC20 of acetylcholine, first value of the cell, read-out: hM1 EC50
[4] = rat M1, FLIPR Ca2+, second value of the cell, read-out: ratM1 EC50

Compound: O=C(N[C@H]1CCCC[C@@H]1O)c1cn(Cc2ccc(N3CCCC3)cc2)c2cccc(F)c12 [Example 161, 4-fluoro-N-((1S,2S)-2-hydroxycyclohexyl)-1-(4-(pyrrolidin-1-yl)benzyl)-1H-indole-3-carboxamide]
- EC50 [1, 3]: 121 nM
- EC50 [2, 4]: 307 nM

Compound: Cc1ccc(F)c2c(C(=O)NC3CCOCC3)cn(Cc3ccc(-c4cnn(C)c4)cc3)c12 [Example 49, 4-fluoro-7-methyl-1-(4-(1-methyl-1H-pyrazol-4-yl)benzyl)-N-(tetrahydro-2H-pyran-4-yl)-1H-indole-3-carboxamide]
- EC50 [1, 3]: 44.5 nM
- EC50 [2, 4]: 52.5 nM

Compound: CNC(=O)c1ccc(Cn2cc(C(=O)NC3CC3)c3c(F)cccc32)cc1 [Example 111, N-cyclopropyl-4-fluoro-1-[[4-(methylcarbamoyl)phenyl]methyl]indol-3-carboxamide]
- EC50 [1, 3]: 127 nM
- EC50 [2, 4]: 408 nM

Compound: Cn1cc(-c2ccc(Cn3cc(C(=O)N[C@H]4CCCC[C@@H]4O)c4c(F)c(F)c(F)c(F)c43)cn2)cn1 [Example 27, 4,5,6,7-tetrafluoro-N-((1S,2S)-2-hydroxycyclohexyl)-1-((6-(1-methyl-1H-pyrazol-4-yl)pyridine-3-yl)methyl)-1H-indole-3-carboxamide]
- EC50 [1, 3]: 56 nM
- EC50 [2, 4]: 80.7 nM

Compound: Cc1ccc(F)c2c(C(=O)N[C@H]3CCCC[C@@H]3O)cn(Cc3ccc(-c4cnn(C)c4)cc3F)c12 [Example 45, 4-fluoro-1-(2-fluoro-4-(1-methyl-1H-pyrazol-4-yl)benzyl)-N-((1S,2S)-2-hydroxycyclohexyl)-7-methyl-1H-indole-3-carboxamide]
- EC50 [1, 3]: 36.1 nM
- EC50 [2, 4]: 74.1 nM

Compound: Cn1cc(-c2ccc(Cn3cc(C(=O)N[C@H]4CCC[C@H]4O)c4c(F)cccc43)c(F)c2)cn1 [Example 24, 4-fluoro-1-(2-fluoro-4-(1-methyl-1H-pyrazol-4-yl)benzyl)-N-((1S,2R)-2-hydroxycyclopentyl)-1H-indole-3-carboxamide]
- EC50 [1, 3]: 46.3 nM
- EC50 [2, 4]: 84.5 nM

Compound: Cn1cc(-c2ccc(Cn3nc(C(=O)N[C@H]4CCCC[C@@H]4O)c4c(F)ccc(F)c43)cn2)cn1 [Example 75, 4,7-difluoro-N-((1S,2S)-2-hydroxycyclohexanol)-1-((6-(1-methyl-1H-pyrazol-4-yl)yridine-3-yl)methyl)-1H-indazole-3-carboxamide]
- EC50 [1, 3]: 40.1 nM
- EC50 [2, 4]: 46 nM

Compound: O=C(N[C@H]1CCOC[C@@H]1O)c1cn(Cc2ccc(N3CCCC3=O)cc2)c2cccc(F)c12 [Example 84, 4-fluoro-N-((3R,4S)-3-hydroxytetrahydro-2H-pyran-4-yl)-1-(4-(2-oxopyrrolidin-1-yl)benzyl)-1H-indole-3-carboxamide]
- EC50 [1, 3]: 182 nM
- EC50 [2, 4]: 169 nM

Compound: Cn1cc(-c2ccc(Cn3nc(C(=O)N[C@H]4CCCC[C@@H]4O)c4c(F)cccc43)c(F)c2)cn1 [Example 3, 4-fluoro-1-(2-fluoro-4-(1-methyl-1H-pyrazol-4-yl)benzyl)-N-((1S,2S)-2-hydroxycyclohexyl)-1H-indazole-3-carboxamide]
- EC50 [1, 3]: 25.2 nM
- EC50 [2, 4]: 90.6 nM

Compound: NC(=O)c1ccc(Cn2cc(C(=O)N[C@H]3CCCC[C@@H]3O)c3c(F)cccc32)cc1 [Example 77, 1-(4-carbamoylbenzyl)-4-fluoro-N-((1S,2S)-2-hydroxycyclohexyl)-1H-indole-3-carboxamide]
- EC50 [1, 3]: 2.21 nM
- EC50 [2, 4]: 2.47 nM

Compound: O=C(N[C@H]1CCOC[C@@H]1O)c1cn(Cc2ccc(-n3cncn3)nc2)c2cccc(F)c12 [Example 78, 1-((6-(1H-1,2,4-triazol-1-yl)yridine-3-yl)methyl)-4-fluoro-N-((3R,4S)-3-hydroxytetrahydro-2H-pyran-4-yl)-1H-indole-3-carboxamide]
- EC50 [1, 3]: 522 nM
- EC50 [2, 4]: 728 nM

Compound: Cn1cc(-c2ccc(Cn3cc(C(=O)N[C@H]4CCOC[C@@H]4O)c4c(F)cccc43)cc2)cn1 (single isomer, unassigned) [Example 55, 4-fluoro-N-((3R,4S) or (3S,4R)-3-hydroxytetrahydro-2H-pyran-4-yl)-1-(4-(1-methyl-1H-pyrazol-4-yl)benzyl)-1H-indole-3-carboxamide]
- EC50 [1, 3]: 2.11 nM
- EC50 [2, 4]: 2.82 nM

Compound: COc1ccc(F)c2c(C(=O)NC3CCOCC3)cn(Cc3ccc4c(cnn4C)c3)c12 [Example 154, 4-fluoro-7-methoxy-1-((1-methyl-1H-indazol-5-yl)methyl)-N-(tetrahydro-2H-pyran-4-yl)-1H-indole-3-carboxamide]
- EC50 [1]: 272 nM
- EC50 [2]: 837 nM

Compound: CCc1ccc(F)c2c(C(=O)N[C@H]3CCOC[C@@H]3O)cn(Cc3ccc(-c4cnn(C)c4)cc3)c12 [Example 109, 7-ethyl-4-fluoro-N-((3R,4S)-3-hydroxytetrahydro-2H-pyran-4-yl)-1-(4-(1-methyl-1H-pyrazol-4-yl)benzyl)-1H-indole-3-carboxamide]
- EC50 [1, 3]: 61 nM
- EC50 [2, 4]: 79 nM

Compound: O=C(N[C@H]1CCCC[C@@H]1O)c1cn(Cc2ccc(F)c(F)c2)c2cccc(F)c12 [Example 41, 1-(3,4-difluorobenzyl)-4-fluoro-N-((1S,2S)-2-hydroxycyclohexyl)-1H-indole-3-carboxamide]
- EC50 [1]: 219 nM
- EC50 [2]: 456 nM

Compound: O=C(N[C@H]1CCOC[C@@H]1O)c1cn(Cc2ccc(-c3nccs3)cc2)c2cccc(F)c12 [Example 79, 4-fluoro-N-((3R,4S)-3-hydroxytetrahydro-2H-pyran-4-yl)-1-(4-(thiazol-2-yl)benzyl)-1H-indole-3-carboxamide]
- EC50 [1, 3]: 16.8 nM
- EC50 [2, 4]: 25.6 nM

Compound: O=C(N[C@H]1CCCC[C@@H]1O)c1cn(Cc2ccc(Cl)cc2)c2cccc(F)c12 [Example 38, 1-(4-chlorobenzyl)-4-fluoro-N-((1S,2S)-2-hydroxycyclohexyl)-1H-indole-3-carboxamide]
- EC50 [1]: 131 nM
- EC50 [2]: 382 nM

Compound: O=C(N[C@H]1CCCC[C@@H]1O)c1cn(Cc2ccc(-c3ccn[nH]3)cc2)c2cccc(F)c12 [Example 155, 1-(4-(1H-Pyrazol-5-yl)benzyl)-4-fluoro-N-((1S,2S)-2-hydroxycyclohexyl)-1H-indole-3-carboxamide]
- EC50 [1, 3]: 11 nM
- EC50 [2, 4]: 5 nM

Compound: Cc1cn(-c2ccc(Cn3cc(C(=O)NC4CCOCC4)c4c(F)cccc43)cc2)cn1 [Example 67, 4-fluoro-1-(4-(4-methyl-1H-imidazol-1-yl)benzyl)-N-(tetrahydro-2H-pyran-4-yl)-1H-indole-3-carboxamide]
- EC50 [1, 3]: 82.8 nM
- EC50 [2, 4]: 183 nM

Compound: Cn1cc(-c2ccc(Cn3cc(C(=O)N[C@H]4CCOC[C@@H]4O)c4c(F)ccc(C5CC5)c43)c(F)c2)cn1 [Example 107, 7-cyclopropyl-4-fluoro-1-(2-fluoro-4-(1-methyl-1H-pyrazol-4-yl)benzyl)-N-((3R,4S)-3-hydroxytetrahydro-2H-pyran-4-yl)-1H-indole-3-carboxamide]
- EC50 [1, 3]: 482 nM
- EC50 [2, 4]: 767 nM

Compound: Cn1cc(-c2ccc(Cn3cc(C(=O)N[C@H]4CCCC[C@@]4(C)O)c4c(F)cccc43)c(F)c2)cn1 (racemic) [Example 23, 4-fluoro-1-(2-fluoro-4-(1-methyl-1H-pyrazol-4-yl)benzyl)-N-((1SR,2RS)-2-hydroxy-2-methylcyclohexyl)-1H-indole-3-carboxamide]
- EC50 [1, 3]: 14.9 nM
- EC50 [2, 4]: 25.8 nM

Compound: CNC(=O)c1ccc(Cn2cc(C(=O)NCC3CC3)c3c(F)cccc32)cc1 [Example 116, N-(cyclopropylmethyl)-4-fluoro-1-[[4-(methylcarbamoyl)phenyl]methyl]indole-3-carboxamide]
- EC50 [1, 3]: 74 nM
- EC50 [2, 4]: 320 nM

Compound: Cn1cc(-c2ccc(Cn3cc(C(=O)N[C@H]4CCCC[C@@H]4O)c4c(F)cccc43)cc2)cn1 [Example 44, 4-fluoro-N-((1S,2S)-2-hydroxycyclohexyl)-1-(4-(1-methyl-1H-pyrazol-4-yl)benzyl)-1H-indole-3-carboxamide]
- EC50 [1, 3]: 6 nM
- EC50 [2, 4]: 9.8 nM

Compound: O=C(N[C@H]1CCCC[C@@H]1O)c1cn(Cc2ccn3ccnc3c2)c2cccc(F)c12 [Example 144, 4-fluoro-N-((1S,2S)-2-hydroxycyclohexyl)-1-(imidazo[1,2-a]pyridin-7-ylmethyl)-1H-indole-3-carboxamide]
- EC50 [1]: 70 nM
- EC50 [2]: 172 nM

Compound: Cn1cc(-c2ccc(Cn3cc(C(=O)NC4CCCCC4)c4c(F)cccc43)c(F)c2)cn1 [Example 20, N-cyclohexyl-4-fluoro-1-(2-fluoro-4-(1-methyl-1H-pyrazol-4-yl)benzyl)-1H-indole-3-carboxamide]
- EC50 [1, 3]: 204 nM
- EC50 [2, 4]: 425 nM
